No end group written: not given here.

The subject of data set [1] is Cryptococcus neoformans CGMCC 2.1563. The conditions noted are these: CGMCC 2.1563, 24 h.
Data set [2] relates to Enterococcus faecium QZ18080. The conditions noted are these: QZ18080, 24 h.
In data set [3] the test system is Pseudomonas aeruginosa QZ18071. The conditions noted are these: QZ18071, 24 h.
Data set [4] relates to Klebsiella pneumoniae QZ18106. The conditions noted are these: QZ18106, 24 h.
The test system of data set [5] is Enterococcus faecalis QZ19138. The conditions noted are these: QZ19138, 24 h.
The subject of data set [6] is Staphylococcus aureus QZ19131. The conditions noted are these: QZ19131, 24 h.
The subject of data set [7] is Acinetobacter baumannii CGMCC 1.6769. The conditions noted are these: CGMCC 1.6769, 24 h.
Data set [8] deals with Enterococcus faecium CGMCC 1.131. The conditions noted are these: CGMCC 1.131, 24 h.
Data set [9] relates to Staphylococcus aureus CGMCC 1.2465. The conditions noted are these: CGMCC 1.2465, 24 h.
Data set [10] deals with Shigella flexneri CGMCC 1.1868. The conditions noted are these: 24 h.
Data set [11] concerns Pseudomonas aeruginosa CGMCC 1.1785. The conditions noted are these: CGMCC 1.1785, 24 h.
Data set [12] relates to Fusarium graminearum CGMCC 3.4521. The conditions noted are these: Filamentous fungi, incubated 24 hours.
The test system of data set [13] is Escherichia coli QZ18109. The conditions noted are these: QZ18109, 24 h.
The subject of data set [14] is Listeria monocytogenes CGMCC 1.10753. The conditions noted are these: CGMCC 1.10753, 24 h.
The subject of data set [15] is Escherichia coli CGMCC 1.2389. The conditions noted are these: CGMCC 1.2389, 24 h.
Data set [16] has as its system Fusarium solani CGMCC 3.584. The conditions noted are these: 24 h.
Data set [17] relates to Candida albicans CGMCC 2.2411. The conditions noted are these: CGMCC 2.2411, 24 h.
In data set [18] the test system is Human embryonic kidney 293T (HEK-293T) cells. Format: cell-based. On the procedure:
(§1) IV. Cytotoxicity of the […]44-63 is measured and evaluated by using 3-(4,5-dimethylthiazol-2-yl)-5-(3-carboxymethoxyphenyl)-2-(4-sulfophenyl)-2H-tetrazolium (MTS) 1. Human embryonic kidney 293T (HEK-293T) cells and epithelioma papulosum […] (EPC) cells are selected to assess the cytotoxicity of the […]44-63. […] HEK-293T cells are incubated in a cell incubator with 5% CO2 at 37° C., and EPC cells are incubated in a cell incubator with 5% CO2 at 28° C. (2) 50 μL of medium is carefully sucked out, fresh media with or without different concentrations of the […]44-63 are respectively added to a corresponding well, put in a corresponding cell condition, and incubated for another 24 hours while leaving to stand. (3) 20 μL of an MTS-Phenazinemethosulfate (PMS) mixed solution is added and incubated for 4 hours, absorbance of each well is measured at OD492 nm in a microplate reader, and cell viabilities are calculated.

For data set [19], the system named is epithelioma papulosum cyprini (EPC) cells. Format: cell-based. On the procedure: as §1
The test system of data set [20] is Bacillus cereus CGMCC 1.3760. The conditions noted are these: CGMCC 1.3760, 24 h.
Data set [21] relates to Acinetobacter baumannii QZ20141. The conditions noted are these: QZ20141, 24 h.

On to “GKKKKRNMMKTKEPGIIFFF-NH2 [Scyampcin44-63]”, for which the MBC in data set [1] lay within 0 to 3 µM; in data set [2], 0 to 3 µM; in [3] it was 6 to 12 µM; in data set [4] it was 3 to 6 µM; in data set [5], 3 to 6 µM; in [6], 3 to 6 µM. Moreover, the MBC in data set [7] was in the range of 0 to 3 µM; in data set [8], 0 to 3 µM; in data set [9], 3 to 6 µM; in [10] it was 0 to 3 µM; in data set [11] it was 6 to 12 µM; in data set [12] it was 3 to 6 µM. The MBC was in the range of 0 to 3 µM in [13]; 0 to 3 µM in [14]; 0 to 3 µM in data set [15]; 3 to 6 µM in data set [16]; 3 to 6 µM in data set [17]; 3 to 6 µM in data set [20]. For the same substance, in data set [21], the MBC lay within 3 to 6 µM. The “Cytotoxicity (cell viability, MTS)” value in data set [18] and in [19] was “no cytotoxicity” throughout.

(Values after patent US20240138406A1, “ANTIMICROBIAL PEPTIDE SCYAMPCIN44-63 AND APPLICATION THEREOF” (Xiamen University, priority 2021, published 2024).)
